These results are taken from ChEMBL document CHEMBL1201862, “PubChem BioAssay data set” (2004).

For assay [1], the target named is Peroxisome proliferator-activated receptor gamma/Nuclear receptor coactivator 1 (Homo sapiens, UniProt P37231). Nature of the assay: TR-FRET dose response biochemical High Throughput Screening assay for agonists of the steroid receptor coactivator 1 (SRC-1) recruitment by the peroxisome proliferator-activated receptor gamma (PPAR gamma): non-selective agonists. [Related pubchem assays (depositor defined):AID1300, AID1808, AID504735, AID631]. Type of assay: protein assay.
Chain of Peroxisome proliferator-activated receptor gamma/Nuclear receptor coactivator 1 (P37231 whole entry): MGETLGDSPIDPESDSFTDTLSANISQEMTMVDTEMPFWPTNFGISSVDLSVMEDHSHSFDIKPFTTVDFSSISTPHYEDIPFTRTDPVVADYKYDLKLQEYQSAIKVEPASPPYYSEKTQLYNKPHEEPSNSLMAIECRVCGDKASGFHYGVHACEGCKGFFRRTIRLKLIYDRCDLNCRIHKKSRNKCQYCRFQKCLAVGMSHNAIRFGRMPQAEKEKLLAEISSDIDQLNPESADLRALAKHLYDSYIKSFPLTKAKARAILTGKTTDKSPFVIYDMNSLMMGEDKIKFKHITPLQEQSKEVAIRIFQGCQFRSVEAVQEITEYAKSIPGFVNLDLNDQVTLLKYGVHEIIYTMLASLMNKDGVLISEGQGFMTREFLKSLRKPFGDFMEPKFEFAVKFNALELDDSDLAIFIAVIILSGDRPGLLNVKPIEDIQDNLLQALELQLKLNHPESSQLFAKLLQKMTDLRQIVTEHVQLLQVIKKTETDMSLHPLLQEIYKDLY
Chain of Peroxisome proliferator-activated receptor gamma/Nuclear receptor coactivator 1 (Q15788 whole entry, further chain): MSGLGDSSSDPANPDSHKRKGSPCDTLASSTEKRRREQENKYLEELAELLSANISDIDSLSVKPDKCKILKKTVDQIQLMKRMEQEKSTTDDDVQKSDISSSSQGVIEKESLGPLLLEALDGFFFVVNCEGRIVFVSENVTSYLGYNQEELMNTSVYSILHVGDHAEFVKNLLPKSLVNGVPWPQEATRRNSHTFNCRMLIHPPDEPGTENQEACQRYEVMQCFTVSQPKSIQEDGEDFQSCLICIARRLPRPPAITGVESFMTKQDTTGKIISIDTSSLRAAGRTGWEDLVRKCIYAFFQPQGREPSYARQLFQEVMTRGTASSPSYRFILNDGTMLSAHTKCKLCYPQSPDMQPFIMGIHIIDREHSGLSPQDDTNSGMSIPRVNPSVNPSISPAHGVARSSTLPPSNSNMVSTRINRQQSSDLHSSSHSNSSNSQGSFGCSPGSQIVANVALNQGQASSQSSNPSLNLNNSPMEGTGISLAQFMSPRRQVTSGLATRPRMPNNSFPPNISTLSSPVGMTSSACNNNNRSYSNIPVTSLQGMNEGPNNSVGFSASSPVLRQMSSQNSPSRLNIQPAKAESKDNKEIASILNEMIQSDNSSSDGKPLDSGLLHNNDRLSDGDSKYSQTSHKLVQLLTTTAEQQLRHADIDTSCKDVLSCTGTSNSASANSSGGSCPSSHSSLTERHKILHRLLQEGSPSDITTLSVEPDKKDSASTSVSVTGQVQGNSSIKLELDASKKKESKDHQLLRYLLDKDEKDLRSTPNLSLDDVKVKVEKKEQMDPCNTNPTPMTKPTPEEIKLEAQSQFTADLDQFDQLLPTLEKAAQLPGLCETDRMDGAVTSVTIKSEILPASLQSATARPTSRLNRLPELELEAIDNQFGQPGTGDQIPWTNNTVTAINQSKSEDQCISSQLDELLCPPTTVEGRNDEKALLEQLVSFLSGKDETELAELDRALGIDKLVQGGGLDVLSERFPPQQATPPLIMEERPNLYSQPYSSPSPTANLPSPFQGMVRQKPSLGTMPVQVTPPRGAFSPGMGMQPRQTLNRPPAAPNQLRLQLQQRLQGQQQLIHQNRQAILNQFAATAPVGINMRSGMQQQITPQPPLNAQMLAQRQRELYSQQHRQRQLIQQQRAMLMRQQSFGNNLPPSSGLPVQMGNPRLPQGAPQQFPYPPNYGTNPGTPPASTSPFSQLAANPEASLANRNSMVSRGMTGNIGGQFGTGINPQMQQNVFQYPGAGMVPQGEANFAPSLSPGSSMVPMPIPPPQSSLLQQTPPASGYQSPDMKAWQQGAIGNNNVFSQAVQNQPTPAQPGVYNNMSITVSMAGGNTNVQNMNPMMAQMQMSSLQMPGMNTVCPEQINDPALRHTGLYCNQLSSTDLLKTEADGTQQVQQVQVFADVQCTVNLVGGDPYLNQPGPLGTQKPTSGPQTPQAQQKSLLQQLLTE

Assay [2] deals with Peroxisome proliferator-activated receptor gamma/Nuclear receptor coactivator 3 (Homo sapiens, UniProt P37231). Nature of the assay: TR-FRET dose response biochemical High Throughput Screening assay for agonists of the steroid receptor coactivator 3 (SRC-3) recruitment by the peroxisome proliferator-activated receptor gamma (PPAR gamma): non-selective agonists. [Related pubchem assays: 1301 (Confirmation screen.), 1048 (Primary screen.)]. It counts as functional. On the technique in general: Time-resolved FRET reads energy transfer from a long-lived donor to a nearby acceptor.

Assay [3] addresses Peroxisome proliferator-activated receptor gamma/Nuclear receptor coactivator 2 (Homo sapiens, UniProt P37231). As to the kind of experiment: TR-FRET dose response biochemical High Throughput Screening assay for agonists of the steroid receptor coactivator 2 (SRC-2) recruitment by the peroxisome proliferator-activated receptor gamma (PPAR gamma): non-selective agonists. [Related pubchem assays: 1297, 1032 ]. It counts as functional.

Assay [4] concerns the target T1, Coagulation factor XII (Homo sapiens, UniProt P00748).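 Also: activated factor XIIa alpha cleaving a fluorogenic AMC peptide substrate; inhibitor potency from loss of enzyme activity.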
T1 sequence (P00748 whole entry): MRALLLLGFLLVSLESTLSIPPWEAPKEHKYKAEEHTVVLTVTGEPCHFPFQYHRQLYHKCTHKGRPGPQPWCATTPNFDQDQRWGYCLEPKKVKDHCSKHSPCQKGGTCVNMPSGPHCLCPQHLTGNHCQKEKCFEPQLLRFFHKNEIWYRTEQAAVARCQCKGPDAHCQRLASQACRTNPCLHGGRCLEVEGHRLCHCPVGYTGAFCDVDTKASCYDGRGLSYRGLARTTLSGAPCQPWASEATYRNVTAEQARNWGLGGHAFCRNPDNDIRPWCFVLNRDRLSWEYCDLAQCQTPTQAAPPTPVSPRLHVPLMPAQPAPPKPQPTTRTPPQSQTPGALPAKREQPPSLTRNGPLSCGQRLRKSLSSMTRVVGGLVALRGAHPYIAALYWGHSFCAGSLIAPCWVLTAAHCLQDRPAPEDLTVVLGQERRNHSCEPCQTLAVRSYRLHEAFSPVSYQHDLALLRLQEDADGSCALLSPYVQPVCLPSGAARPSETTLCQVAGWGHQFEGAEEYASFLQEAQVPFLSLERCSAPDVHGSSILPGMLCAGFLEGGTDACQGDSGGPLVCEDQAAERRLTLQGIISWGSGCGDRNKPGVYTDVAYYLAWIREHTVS
It counts as functional.

Assay [5] addresses T2, Replicative DNA helicase DnaB (Mycobacterium tuberculosis, UniProt P9WMR3).
T2 sequence (P9WMR3 whole entry): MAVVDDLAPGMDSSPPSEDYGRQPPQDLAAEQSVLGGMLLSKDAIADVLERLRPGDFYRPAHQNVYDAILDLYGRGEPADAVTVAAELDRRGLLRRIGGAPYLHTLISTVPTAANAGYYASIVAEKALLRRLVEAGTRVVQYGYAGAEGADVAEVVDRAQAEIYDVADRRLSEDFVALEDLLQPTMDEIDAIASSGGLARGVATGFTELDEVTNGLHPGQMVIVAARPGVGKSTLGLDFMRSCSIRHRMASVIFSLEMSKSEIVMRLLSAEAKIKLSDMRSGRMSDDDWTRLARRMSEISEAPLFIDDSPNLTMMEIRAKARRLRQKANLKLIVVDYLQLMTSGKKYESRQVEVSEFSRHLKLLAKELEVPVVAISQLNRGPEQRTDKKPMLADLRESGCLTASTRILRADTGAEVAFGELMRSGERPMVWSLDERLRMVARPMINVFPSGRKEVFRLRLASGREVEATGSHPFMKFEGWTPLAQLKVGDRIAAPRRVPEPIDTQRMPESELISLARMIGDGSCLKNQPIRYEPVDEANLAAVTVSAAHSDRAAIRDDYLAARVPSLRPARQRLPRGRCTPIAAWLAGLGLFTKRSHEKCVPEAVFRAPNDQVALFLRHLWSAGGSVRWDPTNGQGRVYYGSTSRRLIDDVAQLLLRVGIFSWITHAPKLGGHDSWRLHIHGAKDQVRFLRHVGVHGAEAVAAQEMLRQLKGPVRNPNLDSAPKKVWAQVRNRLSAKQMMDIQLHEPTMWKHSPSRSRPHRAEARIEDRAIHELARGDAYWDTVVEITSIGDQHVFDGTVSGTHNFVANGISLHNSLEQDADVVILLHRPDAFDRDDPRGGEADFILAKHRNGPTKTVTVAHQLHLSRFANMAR
As to the kind of experiment: DnaB intein splicing inhibitors, dose response, biochemical, cell-free fluorescence (AID 449749). It counts as functional.

The target in assay [6] is T3, Protein RecA (Mycobacterium tuberculosis, UniProt P9WHJ3).
T3 sequence (P9WHJ3 whole entry): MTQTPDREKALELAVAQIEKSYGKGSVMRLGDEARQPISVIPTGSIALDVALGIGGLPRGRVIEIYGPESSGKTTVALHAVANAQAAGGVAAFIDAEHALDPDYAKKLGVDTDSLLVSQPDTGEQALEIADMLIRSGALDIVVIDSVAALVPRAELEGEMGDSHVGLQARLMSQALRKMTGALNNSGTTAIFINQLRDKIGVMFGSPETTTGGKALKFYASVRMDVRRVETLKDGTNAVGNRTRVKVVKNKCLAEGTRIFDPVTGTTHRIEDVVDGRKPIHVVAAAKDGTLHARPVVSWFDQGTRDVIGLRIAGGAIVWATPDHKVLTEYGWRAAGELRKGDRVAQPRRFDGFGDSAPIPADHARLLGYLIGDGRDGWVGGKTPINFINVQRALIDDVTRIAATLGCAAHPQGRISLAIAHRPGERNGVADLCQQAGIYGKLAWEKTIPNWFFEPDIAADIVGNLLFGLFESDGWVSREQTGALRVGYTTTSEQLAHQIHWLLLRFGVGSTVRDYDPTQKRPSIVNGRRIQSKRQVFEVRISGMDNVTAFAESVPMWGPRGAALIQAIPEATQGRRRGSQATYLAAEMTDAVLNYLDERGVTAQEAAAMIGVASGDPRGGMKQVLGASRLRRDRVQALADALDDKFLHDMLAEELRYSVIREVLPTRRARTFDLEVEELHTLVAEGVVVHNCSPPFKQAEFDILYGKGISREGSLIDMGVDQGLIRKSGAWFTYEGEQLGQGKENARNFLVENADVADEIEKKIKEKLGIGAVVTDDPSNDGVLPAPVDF
As to the kind of experiment: Fluorescence Cell-Free Homogeneous Dose Retest to Identify Inhibitors of RecA-Intein Splicing Activity. [Related pubchem assays (depositor defined):AID2097, AID2223, AID489010, AID492950]. It counts as functional.

A short description of assay [7]: Shn3 3'UTR reporter inhibitors, dose response, cell-based, Clone20 osteoblasts, firefly luciferase, cherry-picked (AID 624132).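 Also: firefly luciferase luminescence from reporter carrying the Shn3 3'UTR in osteoblasts.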 Type of assay: functional.
The nature of assay [8]: HepG2 cell cytotoxicity, dose response, cytotoxicity control for Shn3 inhibitor project, CellTiter-Glo, cherry-picked (AID 624134). It counts as functional, cell-based. In general terms: ATP-based viability assays read luminescence as a measure of living cells.
Assay [9] in a line: control 3'UTR Renilla luciferase suppression, dose response, counter-screen for Shn3 inhibitor project, cell-based, Clone20-Shn3RL, cherry-picked (AID 624133). It counts as functional. (In general: Counterscreens check selectivity or assay interference.)
For assay [10], the system named is HEK293. As to the kind of experiment: cells. The conditions noted are these: Homo sapiens.
Assay [11] relates to HEK293. Nature of the assay: cells. The conditions noted are these: Homo sapiens. This is another data set of the same source.
Assay [12] deals with T4, Rac GTPase-activating protein 1 (Homo sapiens, UniProt Q9H0H5).
T4 sequence (Q9H0H5 whole entry): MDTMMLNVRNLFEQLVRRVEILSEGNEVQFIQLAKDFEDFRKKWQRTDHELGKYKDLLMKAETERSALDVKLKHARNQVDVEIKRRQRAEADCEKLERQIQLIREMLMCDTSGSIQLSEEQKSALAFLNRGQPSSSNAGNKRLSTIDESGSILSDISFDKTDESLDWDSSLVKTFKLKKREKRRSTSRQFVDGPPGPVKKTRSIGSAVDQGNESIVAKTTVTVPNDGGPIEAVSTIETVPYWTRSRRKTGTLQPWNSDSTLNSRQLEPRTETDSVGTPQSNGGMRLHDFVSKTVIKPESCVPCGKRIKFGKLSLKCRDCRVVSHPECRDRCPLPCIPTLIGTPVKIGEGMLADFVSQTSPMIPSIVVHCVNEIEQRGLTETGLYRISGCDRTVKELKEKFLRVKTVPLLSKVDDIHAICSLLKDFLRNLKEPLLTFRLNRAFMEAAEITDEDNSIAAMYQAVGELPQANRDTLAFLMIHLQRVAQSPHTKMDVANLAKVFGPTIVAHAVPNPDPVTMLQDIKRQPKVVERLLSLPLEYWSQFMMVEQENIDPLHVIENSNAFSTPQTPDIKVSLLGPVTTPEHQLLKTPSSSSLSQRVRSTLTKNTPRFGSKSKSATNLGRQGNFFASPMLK
As to the kind of experiment: MgcRacGAP GTPase-activating activity inhibitors, confirmation, biochemical, ADP Hunter fluorescence, primary and confirmatory (AID 624330). It counts as functional.

Assay [13] deals with T5, Heat shock factor protein 1 (Mus musculus, UniProt P38532).
T5 sequence (P38532 whole entry): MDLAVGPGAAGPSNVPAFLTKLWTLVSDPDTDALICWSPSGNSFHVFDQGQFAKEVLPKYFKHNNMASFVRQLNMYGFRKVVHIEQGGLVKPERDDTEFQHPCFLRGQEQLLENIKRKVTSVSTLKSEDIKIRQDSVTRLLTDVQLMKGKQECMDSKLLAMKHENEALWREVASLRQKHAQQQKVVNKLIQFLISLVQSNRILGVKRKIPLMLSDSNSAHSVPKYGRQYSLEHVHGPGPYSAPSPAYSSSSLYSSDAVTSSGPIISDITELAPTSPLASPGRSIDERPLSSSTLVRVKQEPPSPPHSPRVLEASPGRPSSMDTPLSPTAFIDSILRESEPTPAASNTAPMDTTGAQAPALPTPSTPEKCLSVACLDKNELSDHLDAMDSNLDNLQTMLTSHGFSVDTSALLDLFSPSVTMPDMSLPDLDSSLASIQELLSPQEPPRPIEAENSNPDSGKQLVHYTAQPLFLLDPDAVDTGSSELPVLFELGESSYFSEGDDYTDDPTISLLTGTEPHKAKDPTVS
Nature of the assay: inhibition of MG132-induced HSE-luciferase signal, confirmation, cell-based, NIH3T3, luminescence, dose retest (AID 2382).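 Also: NIH3T3 fibroblasts with HSF1-driven luciferase reporter stressed by proteasome inhibitor MG132; luminescence from HSF1-driven luciferase expression after 8 hours of MG132 stress.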 Type of assay: functional.

The nature of assay [14]: Luminescence Cell-Based Dose Retest to Confirm Inhibitors of Cancer Stem Cells. [Related pubchem assays (depositor defined):AID2717, AID2721]. Type of assay: functional. The following applies: Homo sapiens.
Assay [15] is described as follows: cytotoxicity in HMLE control line with eGFP shRNA, dose response, counter-screen for HMLE_sh_ECad selective toxicity project, cell-based, HMLE_sh_eGFP, luminescence (AID 463074).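 Also: HMLE human mammary epithelial cells expressing control shRNA against eGFP.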 Type of assay: functional, Homo sapiens.
The target in assay [16] is Glucose-6-phosphate 1-dehydrogenase (Homo sapiens, UniProt P11413). As to the kind of experiment: human G6PD enzyme inhibitors, dose response, selectivity assay for P. falciparum G6PD inhibitor project, biochemical, fluorescence (AID 504792). Type of assay: functional.
Chain of Glucose-6-phosphate 1-dehydrogenase (P11413 whole entry): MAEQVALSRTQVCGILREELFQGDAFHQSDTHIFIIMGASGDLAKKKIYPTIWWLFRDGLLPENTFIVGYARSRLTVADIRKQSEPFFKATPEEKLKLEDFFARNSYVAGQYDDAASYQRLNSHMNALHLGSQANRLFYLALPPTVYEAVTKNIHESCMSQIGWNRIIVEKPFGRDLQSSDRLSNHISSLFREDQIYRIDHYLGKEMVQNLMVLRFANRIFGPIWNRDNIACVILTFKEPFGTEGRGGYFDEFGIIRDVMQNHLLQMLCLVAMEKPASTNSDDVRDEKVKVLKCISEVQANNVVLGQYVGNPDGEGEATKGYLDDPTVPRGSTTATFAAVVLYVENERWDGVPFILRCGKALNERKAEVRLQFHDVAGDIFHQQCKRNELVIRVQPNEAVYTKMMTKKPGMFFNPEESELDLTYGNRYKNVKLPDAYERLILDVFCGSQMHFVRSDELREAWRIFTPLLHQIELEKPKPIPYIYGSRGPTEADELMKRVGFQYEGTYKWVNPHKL
For assay [17], the target named is FAD-linked sulfhydryl oxidase ALR (Homo sapiens, UniProt P55789). Nature of the assay: inhibitors of human ALR sulfhydryl oxidase, dose response, biochemical, H2O2 detection, luminescence, cherry-pick (AID 493248).
Chain of FAD-linked sulfhydryl oxidase ALR (P55789 whole entry): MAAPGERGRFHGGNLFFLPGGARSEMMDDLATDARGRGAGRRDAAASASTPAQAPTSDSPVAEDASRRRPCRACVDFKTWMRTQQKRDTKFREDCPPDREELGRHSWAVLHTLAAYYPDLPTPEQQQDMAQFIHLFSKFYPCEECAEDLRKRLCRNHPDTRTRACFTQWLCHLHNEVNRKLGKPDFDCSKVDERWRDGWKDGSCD

Active and inactive are the calls of the source. Some results are limits rather than exact numbers.

Chain of Peroxisome proliferator-activated receptor gamma/Nuclear receptor coactivator 2 (P37231 whole entry): as the sequence (P37231 whole entry) above
Chain of Peroxisome proliferator-activated receptor gamma/Nuclear receptor coactivator 2 (Q15596 whole entry, further chain): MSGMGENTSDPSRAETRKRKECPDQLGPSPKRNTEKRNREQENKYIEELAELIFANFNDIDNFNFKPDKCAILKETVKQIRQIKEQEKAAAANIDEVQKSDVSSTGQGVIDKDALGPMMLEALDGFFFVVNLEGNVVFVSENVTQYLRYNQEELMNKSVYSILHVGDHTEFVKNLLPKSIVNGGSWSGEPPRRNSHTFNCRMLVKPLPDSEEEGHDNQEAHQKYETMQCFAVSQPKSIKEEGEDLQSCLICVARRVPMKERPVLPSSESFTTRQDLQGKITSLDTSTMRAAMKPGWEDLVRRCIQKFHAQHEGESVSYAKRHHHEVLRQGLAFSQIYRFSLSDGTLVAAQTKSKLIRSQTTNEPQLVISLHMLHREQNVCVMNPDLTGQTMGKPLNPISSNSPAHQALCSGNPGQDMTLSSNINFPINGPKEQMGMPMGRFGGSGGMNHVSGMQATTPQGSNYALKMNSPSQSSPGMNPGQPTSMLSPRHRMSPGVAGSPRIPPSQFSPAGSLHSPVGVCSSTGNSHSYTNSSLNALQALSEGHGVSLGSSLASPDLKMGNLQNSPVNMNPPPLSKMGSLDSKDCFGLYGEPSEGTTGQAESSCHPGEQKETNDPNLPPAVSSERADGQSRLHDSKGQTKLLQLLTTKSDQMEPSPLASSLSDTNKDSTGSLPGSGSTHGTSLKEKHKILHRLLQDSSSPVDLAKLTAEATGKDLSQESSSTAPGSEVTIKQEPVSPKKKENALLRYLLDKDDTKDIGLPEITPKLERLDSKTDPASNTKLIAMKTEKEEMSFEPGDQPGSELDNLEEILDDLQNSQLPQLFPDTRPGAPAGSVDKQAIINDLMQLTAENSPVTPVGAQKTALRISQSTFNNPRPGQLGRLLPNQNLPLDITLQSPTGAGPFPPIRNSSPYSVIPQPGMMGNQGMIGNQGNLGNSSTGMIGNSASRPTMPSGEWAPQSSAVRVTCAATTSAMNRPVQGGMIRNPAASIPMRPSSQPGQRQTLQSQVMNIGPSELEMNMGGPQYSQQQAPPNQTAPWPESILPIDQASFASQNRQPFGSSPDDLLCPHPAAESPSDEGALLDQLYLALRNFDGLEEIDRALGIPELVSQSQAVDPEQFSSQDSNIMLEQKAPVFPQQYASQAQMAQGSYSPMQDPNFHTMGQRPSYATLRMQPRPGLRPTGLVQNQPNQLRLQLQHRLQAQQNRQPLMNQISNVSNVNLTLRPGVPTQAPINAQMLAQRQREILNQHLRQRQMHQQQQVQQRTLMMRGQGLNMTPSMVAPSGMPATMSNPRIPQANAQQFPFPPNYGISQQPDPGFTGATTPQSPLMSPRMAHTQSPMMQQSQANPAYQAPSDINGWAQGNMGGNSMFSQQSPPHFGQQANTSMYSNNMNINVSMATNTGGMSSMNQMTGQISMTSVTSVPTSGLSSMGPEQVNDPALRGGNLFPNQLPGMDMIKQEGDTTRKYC

On to `Sc1nnc(-c2cc(-c3ccco3)[nH]n2)n1-c1ccccc1`, for which the values for the EC50 in [1], in assay [2] and in assay [3] were > 79.4 µM (inactive), > 79.4 µM (not active) and > 79.4 µM (not active), respectively.

For `CCSc1cnn(-c2ccccc2)c(=O)c1SCC`, the EC50 was 54.2 µM (inactive) in assay [1], > 79.4 µM (not active) in assay [2] and 7.53 µM (active) in assay [3].

As to `Cc1ccc(NC(=O)CSc2nnc([C@H](C)NC(=O)OC(C)(C)C)o2)c(C)c1`, the IC50 in assay [4] was > 50 µM (inactive).

Consider `CCNc1ccc2c(Cl)cc(=O)oc2c1`, for which the IC50 in assay [4] was > 50 µM (inactive).

With `O=C(NCc1ccccc1)c1nc(S(=O)(=O)Cc2ccccc2)ncc1Cl`, the AC50 is 2.72 µM (active) in [5], 1.19 µM (active) in [7], 20.4 µM (active) in [8] and 10.8 µM (active) in assay [9]. Also, the figures for the EC50 in [6], in [10] and in assay [11] were 4.88 µM (active), > 59.6 µM (inactive) and > 2.21 µM (active), respectively.

Consider `CC(C)(C)c1ccc(Cn2nnc3c(O)nc(C4CCN(C(=O)Cc5cccs5)CC4)nc32)cc1`, for which the EC50 in assay [10] and in [11] was > 59.7 µM (inactive) in each case.

As to `CCc1c(C)nc2ncnn2c1N1CCC(C(=O)Nc2ccccc2)CC1`, the IC50 in [4] was > 50 µM (inactive).

For `COCCNCC(=O)Nc1nc(C)cs1`, the IC50 in [4] was > 50 µM (inactive); in assay [12] it was 105 µM (active).

As for `c1ccc2c(Nc3nc(-c4ccncc4)nc4ccccc34)cccc2c1`, the EC50 in assay [13] is reported as > 195 µM (not active). In addition, the AC50 was 18.7 µM (active) in assay [14] and 34 µM (active) in [15].

`COC(=O)c1sccc1NS(=O)(=O)c1ccc(OC)cc1`: the AC50 is 21.4 µM (active) in assay [14] and 28.2 µM (active) in assay [15].

Turning to `COCCNC(=S)Nc1ccc(N2CCOCC2)c(S(=O)(=O)Nc2ccc(Cl)cc2)c1`, the IC50 in assay [16] was > 80 µM (inactive).

With `NC(=O)C1=CC2C3C=CC2(O)C(=O)OC3O1` (stereo not given), the EC50 in [10] and in [11] was > 59.7 µM (inactive) in each case.

For the compound `COc1cc(/N=C/c2c(CO)cnc(C)c2O)cc(OC)c1OC`, in assay [16], the IC50 was > 80 µM (inactive). Besides, the AC50 in [17] was 3.63 µM (active).

As usually defined, the EC50 is the concentration that produces a half-maximal response. What is called IC50 is the concentration needed to halve the response being measured. In general, AC50 refers to the concentration giving half of the maximal activity seen.
